Reference: patent publication US7527935B2, “G-protein coupled receptor having eicosanoid as ligand and gene thereof” (Mitsubishi Tanabe Pharma Corporation, priority 2002, dated 2009)

Assays:
[1] = test system: TG1019 protein; experiment: Forskolin-stimulated cAMP production in CHO cells transiently expressing TG1019; assay type: cell-based, human
Text: A TG1019 protein expression vector was transiently introduced to CHO cells to have a recombinant TG1019 protein expressed, and using these cells, a function of TG1019 protein as an eicosanoid receptor was confirmed.
At first, a DNA encoding an entire region of TG1019 protein obtained in Example 1 (1) mentioned above was subcloned in NotI recognition site of a vector plasmid pcDNA3.1 (an expression vector, available from Invitrogen), to obtain TG1019 protein expression vector plasmid pcDNA3.1-TG1019.
CHO cells (1×10^6 cells) were cultured in DMEM/F-12 culture medium supplemented with 10% fetal bovine serum at 37° C. for 20 hours. Using these cells, transfection was carried out by adding plasmid DNA (pcDNA3.1-TG1019, or as a control, vector pcDNA3.1) (5 μg) and transfection reagent (LipofectAMINE, available from Invitrogen), and the mixture was cultured for 24 hours. In case of using pretreatment with pertussis toxin, pertussis toxin (100 ng) was added after 20 hours of culture and the mixture was successively cultured for 4 hours.
The cells after culture were collected, washed, and suspended in a KRH buffer (Krebs-Ringer Hepes buffer, pH 7.4) containing rolipram (25 mM). The suspension was incubated at 37° C. for 30 minutes and inoculated in a 96 well plate (5-7.5×10^4 cells/90 μl/well).
Subsequently, KRH buffer (90 μl/well) containing forskolin (1 μM) and 5-oxo-ETE (the final concentration 0M or 10^−11 to 10^−5 M) was added thereto, and after the mixture was incubated at room temperature for 10 minutes, the cells were lysed to measure a cAMP production amount.
The cAMP production amount was measured using cAMP enzyme immunoassay system available from Amersham Biosciences.

[2] = test system: PC3 human prostate cancer cells; experiment: Apoptosis analysis (annexin V / PI flow cytometry) in PC3 cells; assay type: cell-based; conditions: 20 μl of 100 μM 5-oxo-ETE added together with DHA, 2 hours
Experimental: PC3 human prostate cancer cells, which had been cultured in RPMI1640 culture medium supplemented with 10% fetal bovine serum were dissociated by trypsin-EDTA solution (GibcoBRL), and suspended in RPMI1640 culture medium supplemented with 0.5% fetal bovine serum. The cells were plated onto a 6 cm Petri dish to 2×10^5 cells/dish, and cultured at 37° C. for 18 hours in a CO2 incubator. The supernatant was removed and 1980 μl of the same medium was added, and 20 μl of 1 mM DHA was further added thereto, and the mixture was cultured at 37° C. for 2 hours in a CO2 incubator.
In addition, as a test in the presence of 5-oxo-ETE, 1960 μl of RPMI1640 culture medium supplemented with 0.5% fetal bovine serum was added, and 20 μl of a 100 μM 5-oxo-ETE solution and 20 μl of a 1 mM DHA solution were further added thereto, and the cells were cultured in a similar manner as described above.
The adhered cells were removed by a cell scraper, transferred to a 1.5 ml tube, and centrifuged at 800×g for 5 minutes at 4° C., to collect suspended and adhered cells. […] The cells were suspended in 100 μl of a FITC-Annexin solution, and after 15 minutes of reaction under light-shielded condition at room temperature, 300 μl of Binding buffer was added thereto, and the FITC-Annexin bound to the cells and propidium iodide (PI) uptake into the cells were measured, by means of flow cytometer [Becton Dickinson].

[3] = test system: TG1019 (5-oxo-ETE receptor); experiment: Migration test using CHO cells stably expressing TG1019; assay type: cell-based, human; conditions: 5 hours
Experimental: The cells stably expressing TG1019 and the cells not expressing the same obtained in the above section (1) were cultured in a medium (DMEM/F12 medium supplemented with 10% fetal bovine serum [GibcoBRL]), containing 800 μg/ml of hygromycin B. The cells which were 80 to 90% confluent were dissociated by a cell dissociation buffer, and the cells were washed twice by centrifugation (600×g, 5 minutes, 4° C.) with 10 ml of RPMI1640 culture medium supplemented with 0.1% BSA Then, the cells were prepared to a concentration of 1×10^6 cells/ml in the same medium.
Cell migration test was carried out using 2 chambers for migration test (Transwell; 8 μm pore, 24 well, 3422 [Costar]). Chambers were set in a plate, and a solution (600 μl) containing 5-oxo-ETE was added to the lower chamber, and the cell solution (100 μl) was added to the upper chamber, to start the reaction. Migration was carried out at 37° C. for 5 hours in a CO2 incubator.
The chambers were removed, and […] of the solution in the lower chamber was transferred to a tube, and centrifuged at 600×g, 3 minutes, 4° C. 300 μl of the supernatant was removed, and RPMI1640 culture medium supplemented with 0.1% BSA (not containing phenol red) was added, if needed, to adjust a volume of the cell solution to 300 μl. The number of the cells migrated to the lower chamber were counted by flow cytometer.

[4] = test system: eosinophils; experiment: Migration test of eosinophils; assay type: cell-based; conditions: purified human eosinophils; 1.5 hours
Experimental: Blood was collected (50 ml) from healthy male adult volunteers, and from the collected peripheral blood, eosinophils were purified as follows.
After washing the eosinophils and neutrophils purified in the above sections, the cells were suspended in RPMI1640 supplemented with 0.1% BSA (not containing phenol red) which contains 3 μM Calcein-AM (Dojindo laboratories, fluorescence reagent), so that the cell count became 1×10^6 cells/ml. The suspension was incubated at 37° C. for 30 minutes. The cells were washed twice with the same culture medium, and suspended in the same medium so that the cell count became 1×10^6 cells/ml.
Using these cells, cell migration test was carried out using 2 chambers for migration test (Transwell; 3 μm pore, 24 well, 3422 [Costar]). […]
After the reaction, the chambers were removed, and to the lower chamber was added 66 μl of 10× lysis buffer (5% Triton X-100 dissolved in PBS, 10% ethanol). […] 200 μl of the cell lysate was transferred to 96 well black plate (237105, Nunc), and fluorescence intensities were measured using a fluorometer (ARVO™ SX, Wallac) with an excitation wavelength of 485 nm and a fluorescence wavelength of 535 nm.

Structure (SMILES): CCCCC/C=C\C/C=C\C/C=C\C=C\C(=O)CCCC(=O)O [5-oxo-ETE, 5-oxo-6E,8Z,11Z,14Z-eicosatetraenoic acid]
- cAMP production amount upon forskolin stimulation ([1]; CHO cells with pcDNA3.1-TG1019 introduced, forskolin 1 μM, concentration-dependent): inhibited
- cAMP production ([1]; TG1019-expressing CHO cells pretreated with pertussis toxin): not inhibited
- cAMP production amount upon forskolin stimulation ([1]; control CHO cells with only vector introduced): not changed
- effect on DHA induction of apoptosis [2]: the induction of apoptosis was inhibited
- cell migration ([3]; cells not expressing TG1019): did not
- cell migration ([3]; cells stably expressing TG1019): showed 5-oxo-ETE-induced migration
- migration of eosinophils [4]: has an ability to make these cells migrate
